Measured values published in US20220388964A1 (HiberCell, Inc., priority 2019, published 2022).

Target: GCN2 (Homo sapiens, UniProt Q9P2K8)
Assay: TR-FRET biochemical assay for inhibition of GCN2 (Example 106, for Example 1-4BB)

Sequence of GCN2 (Q9P2K8 whole entry): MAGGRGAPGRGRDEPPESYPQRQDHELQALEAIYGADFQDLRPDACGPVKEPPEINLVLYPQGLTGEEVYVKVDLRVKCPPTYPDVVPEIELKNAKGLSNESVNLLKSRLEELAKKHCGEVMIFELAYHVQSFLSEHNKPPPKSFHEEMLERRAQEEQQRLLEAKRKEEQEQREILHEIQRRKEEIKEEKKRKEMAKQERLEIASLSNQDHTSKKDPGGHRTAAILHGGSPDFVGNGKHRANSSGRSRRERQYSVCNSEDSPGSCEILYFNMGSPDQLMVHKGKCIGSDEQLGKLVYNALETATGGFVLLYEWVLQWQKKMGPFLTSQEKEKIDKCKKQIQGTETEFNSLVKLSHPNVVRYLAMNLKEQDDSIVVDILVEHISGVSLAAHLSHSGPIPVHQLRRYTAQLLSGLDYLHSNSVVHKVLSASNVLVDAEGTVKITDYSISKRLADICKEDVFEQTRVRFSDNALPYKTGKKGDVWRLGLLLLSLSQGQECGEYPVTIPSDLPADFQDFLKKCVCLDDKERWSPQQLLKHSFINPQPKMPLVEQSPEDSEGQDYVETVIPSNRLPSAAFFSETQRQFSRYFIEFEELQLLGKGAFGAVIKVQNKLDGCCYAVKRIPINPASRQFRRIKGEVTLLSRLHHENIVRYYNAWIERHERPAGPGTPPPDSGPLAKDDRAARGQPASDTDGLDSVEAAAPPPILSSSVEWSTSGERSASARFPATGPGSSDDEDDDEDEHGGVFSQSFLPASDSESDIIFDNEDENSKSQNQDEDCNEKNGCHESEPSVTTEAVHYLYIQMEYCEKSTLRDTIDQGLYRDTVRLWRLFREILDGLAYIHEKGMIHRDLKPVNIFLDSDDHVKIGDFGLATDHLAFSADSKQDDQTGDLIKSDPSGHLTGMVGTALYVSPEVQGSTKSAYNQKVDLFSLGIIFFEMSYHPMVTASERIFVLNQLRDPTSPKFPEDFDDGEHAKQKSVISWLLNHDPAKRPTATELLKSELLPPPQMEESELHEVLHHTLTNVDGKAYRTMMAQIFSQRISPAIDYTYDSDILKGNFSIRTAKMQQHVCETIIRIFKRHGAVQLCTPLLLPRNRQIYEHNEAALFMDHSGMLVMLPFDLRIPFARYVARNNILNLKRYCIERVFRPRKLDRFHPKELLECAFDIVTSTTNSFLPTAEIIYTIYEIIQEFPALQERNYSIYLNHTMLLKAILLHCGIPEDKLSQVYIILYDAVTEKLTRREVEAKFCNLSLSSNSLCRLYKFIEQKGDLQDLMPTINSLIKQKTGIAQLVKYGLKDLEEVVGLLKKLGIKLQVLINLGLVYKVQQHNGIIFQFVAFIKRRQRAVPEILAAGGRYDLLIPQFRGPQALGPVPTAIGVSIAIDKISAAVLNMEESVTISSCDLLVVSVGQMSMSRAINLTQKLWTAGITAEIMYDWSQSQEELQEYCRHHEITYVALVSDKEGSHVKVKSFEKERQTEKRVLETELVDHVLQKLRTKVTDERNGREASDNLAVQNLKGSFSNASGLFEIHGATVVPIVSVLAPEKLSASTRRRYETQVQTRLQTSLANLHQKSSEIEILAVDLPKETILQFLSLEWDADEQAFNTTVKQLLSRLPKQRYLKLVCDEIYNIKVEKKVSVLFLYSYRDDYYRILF

SMILES	IC50 (Table 8) [nM]	IC50 (Table 9) [nM]
O=S(=O)(Nc1ccc(F)c(-c2ccc3c(-c4ncc[nH]4)n[nH]c3c2F)c1F)c1ccccc1F [Example 2BT, N-(2,4-difluoro-3-(7-fluoro-3-(1H-imidazol-2-yl)-1H-indazol-6-yl)phenyl)-2-fluorobenzenesulfonamide]	< 500	–
COc1ncc(Cl)cc1S(=O)(=O)Nc1cc(F)cc(-c2ccc3c(C(N)=O)n[nH]c3c2F)c1F [Example 3CF, 6-(3-((5-chloro-2-methoxy-pyridine)-3-sulfonamido)-2,5-difluorophenyl)-7-fluoro-1H-indazole-3-carboxamide]	–	< 500
COc1ncc(F)cc1S(=O)(=O)Nc1cccc(-c2ccc3c(C(=O)NCC[C@@H](O)CO)n[nH]c3c2F)c1F [Example 3BH, 6-(2-fluoro-3-((5-fluoro-2-methoxypyridine)-3-sulfonamido)phenyl)-N-((R)-3,4-dihydroxybutyl)-7-fluoro-1H-indazole-3-carboxamide]	–	500 to 2500
COc1ncc(C#N)cc1S(=O)(=O)Nc1ccc(F)c(-c2ccc3c(C(=O)NCCCO)n[nH]c3c2F)c1F [Example 4C]	–	500 to 2500
COc1ncc(F)cc1S(=O)(=O)Nc1cccc(-c2ccc3c(-c4ncc[nH]4)n[nH]c3c2C)c1F [Example 22, N-(3-(3-(1H-Imidazol-2-yl)-7-methyl-1H-indazol-6-yl)-2-fluorophenyl)-5-fluoro-2-methoxypyridine-3-sulfonamide]	–	500 to 2500
Cn1cc(NC(=O)c2n[nH]c3c(F)c(-c4c(F)ccc(NS(=O)(=O)c5cc(F)cc6c5CCC6O)c4F)ccc23)cn1 (stereo not drawn) [Example 4AI]	–	< 500
COc1ncc(F)cc1S(=O)(=O)Nc1ccc(F)c(-c2ccc3c(-c4nc(C(O)CO)c[nH]4)n[nH]c3c2F)c1F (stereo not drawn) [Example 21, N-(3-(3-(4-(1,2-Dihydroxyethyl)-1H-imidazol-2-yl)-7-fluoro-1H-indazol-6-yl)-2,4-difluorophenyl)-5-fluoro-2-methoxypyridine-3-sulfonamide]	–	< 500
O=S(=O)(Nc1ccc(F)c(-c2ccc3c(-c4ncc[nH]4)n[nH]c3c2F)c1F)c1cc(Cl)ccc1F [Example 2BD, 5-chloro-N-(2,4-difluoro-3-(7-fluoro-3-(1H-imidazol-2-yl)-1H-indazol-6-yl)phenyl)-2-fluorobenzenesulfonamide]	< 500	–
Cc1ccc(F)cc1S(=O)(=O)Nc1ccc(F)c(-c2ccc3c(-c4ncc[nH]4)n[nH]c3c2F)c1F [Example 2BJ, N-(2,4-difluoro-3-(7-fluoro-3-(1H-imidazol-2-yl)-1H-indazol-6-yl)phenyl)-5-fluoro-2-methylbenzenesulfonamide]	< 500	–
O=S(=O)(Nc1ccc(F)c(-c2ccc3c(-c4ncc[nH]4)n[nH]c3c2F)c1F)c1cccn2ccnc12 [Example 3O, N-(2,4-difIuoro-3-(7-fluoro-3-(1H-imidazol-2-yl)-1H-indazol-6-yl)phenyl)-imidazo[1,2-a]pyridine-8-sulfonamide]	–	< 500
Cc1nn(C(F)F)cc1S(=O)(=O)Nc1ccc(F)c(-c2ccc3c(-c4ncc[nH]4)n[nH]c3c2F)c1F [Example 2BU, N-(2,4-difluoro-3-(7-fluoro-3-(1H-imidazol-2-yl)-1H-indazol-6-yl)phenyl)-1-(difluoromethyl)-3-methyl-1H-pyrazole-4-sulfonamide]	< 500	–
Cc1ccc(S(=O)(=O)Nc2ccc(F)c(-c3ccc4c(C(=O)NCCCO)n[nH]c4c3F)c2F)c(C)n1 [Example 3CP, 6-(3-((2,6-dimethylpyridine)-3-sulfonamido)-2,6-difluorophenyl)-7-fluoro-N-(3-hydroxypropyl)-1H-indazole-3-carboxamide]	–	500 to 2500
Cn1nncc1S(=O)(=O)Nc1ccc(F)c(-c2ccc3c(-c4ncc[nH]4)n[nH]c3c2F)c1F [Example 2X, N-(2,4-difluoro-3-(7-fluoro-3-(1H-imidazol-2-yl)-1H-indazol-6-yl)phenyl)-1-methyl-1H-1,2,3-triazole-5-sulfonamide]	2500 to 10000	–
Cc1ncc(F)cc1S(=O)(=O)Nc1cccc(-c2ccc3c(-c4ncc[nH]4)n[nH]c3c2C)c1F [Example 3Y, N-(3-(3-(1H-imidazol-2-yl)-7-methyl-1H-indazol-6-yl)-2-fluorophenyl)-5-fluoro-2-methylpyridine-3-sulfonamide]	–	500 to 2500
COc1ncc(F)cc1S(=O)(=O)Nc1ccc(F)c(-c2ccc3c(C(=O)NC4CCNCC4)n[nH]c3c2F)c1F [Example 3AU, 6-(2,6-difluoro-3-((5-fluoro-2-methoxypyridine)-3-sulfonamido)phenyl)-7-fluoro-N-(piperidin-4-yl)-1H-indazole-3-carboxamide]	–	500 to 2500
Cc1ncc(F)cc1S(=O)(=O)Nc1cc(F)cc(-c2ccc3c(C(N)=O)n[nH]c3c2F)c1F [Example 3CG, 6-(2,5-difluoro-3-((5-fluoro-2-methylpyridine)-3-sulfon-amido)phenyl)-7-fluoro-1H-indazole-3-carboxamide]	–	< 500
COc1ncc(F)cc1S(=O)(=O)Nc1ccc(F)c(-c2ccc3c(-c4nc(C#N)c[nH]4)n[nH]c3c2F)c1F [Example 19, N-(3-(3-(4-Cyano-1H-imidazol-2-yl)-7-fluoro-1H-indazol-6-yl)-2,4-difluorophenyl)-5-fluoro-2-methoxypyridine-3-sulfonamide]	–	< 500
O=S(=O)(Nc1ccc(F)c(-c2ccc3c(-c4ncc[nH]4)n[nH]c3c2F)c1F)c1c(F)cccc1F [Example 2BG, N-(2,4-difluoro-3-(7-fluoro-3-(1H-imidazol-2-yl)-1H-indazol-6-yl)phenyl)-2,6-difluorobenzenesulfonamide]	< 500	–
COc1ncc(F)cc1S(=O)(=O)Nc1ccc(F)c(-c2ccc3c(-c4nc(Cl)c[nH]4)n[nH]c3c2F)c1F [Example 17, N-(3-(3-(4-Chloro-1H-imidazol-2-yl)-7-fluoro-1H-indazol-6-yl)-2,4-difluorophenyl)-5-fluoro-2-methoxypyridine-3-sulfonamide]	–	< 500
COC(=O)c1ccc(Cl)cc1S(=O)(=O)Nc1ccc(F)c(-c2ccc3c(-c4ncc[nH]4)n[nH]c3c2F)c1F [Example 2BC, methyl 4-chloro-2-(N-(2,4-difluoro-3-(7-fluoro-3-(1H-imidazol-2-yl)-1H-indazol-6-yl)phenyl)sulfamoyl)benzoate]	< 500	–
Cn1ncc(S(=O)(=O)Nc2ccc(F)c(-c3ccc4c(-c5ncc[nH]5)n[nH]c4c3F)c2F)n1 [Example 2Y, N-(2,4-difluoro-3-(7-fluoro-3-(1H-imidazol-2-yl)-1H-indazol-6-yl)phenyl)-2-methyl-2H-l,2,3-triazole-4-sulfonamide]	2500 to 10000	–
COc1ncc(Cl)cc1S(=O)(=O)Nc1cc(F)cc(-c2ccc3c(-c4ncc[nH]4)n[nH]c3c2F)c1F [Example 3C, 5-chloro-N-(2,5-difluoro-3-(7-fluoro-3-(1H-imidazol-2-yl)-1H-indazol-6-yl)phenyl)-2-methoxypyridine-3-sulfonamide]	–	< 500
COc1ncc(F)cc1S(=O)(=O)Nc1ncc(F)c(-c2ccc3c(C(N)=O)n[nH]c3c2)c1F [Example 3P, 6-(3,5-difluoro-2-((5-fluoro-2-methoxypyridine)-3-sulfonamido)pyridin-4-yl)-1H-indazole-3-carboxamide]	–	> 10000
COc1ncc(Cl)cc1S(=O)(=O)Nc1ccc(F)c(-c2ccc3c(C(=O)Nc4nn[nH]n4)n[nH]c3c2F)c1F [Example 3CU, 6-(3-((5-chloro-2-methoxy-pyridine)-3-sulfonamido)-2,6-difluorophenyl)-7-fluoro-N-(2H-tetrazol-5-yl)-1H-indazole-3-carboxamide]	–	< 500
